Experimental data from patent US5998666A, “Phenoxyethylamine derivatives, method of preparation, application as medicine and pharmaceutical compositions containing same” (Societe de Conseils de Recherches Et d'Applications …, priority 1996, dated 1999).

target: T1, 5-HT1A receptor (Rattus norvegicus, UniProt P19327); experiment: Affinity for 5-HT1A receptor: inhibition of [3H]8-OH-DPAT binding to rat cerebral cortex membranes; details: [3H]8-OH-DPAT (1 nM), 30 min at 25° C., Tris-HCl 50 mM, pH=7.4
T1 construct: from tissue; host or cells: cerebral cortex membranes of male Sprague Dawley rats
T1 sequence (P19327 1-422): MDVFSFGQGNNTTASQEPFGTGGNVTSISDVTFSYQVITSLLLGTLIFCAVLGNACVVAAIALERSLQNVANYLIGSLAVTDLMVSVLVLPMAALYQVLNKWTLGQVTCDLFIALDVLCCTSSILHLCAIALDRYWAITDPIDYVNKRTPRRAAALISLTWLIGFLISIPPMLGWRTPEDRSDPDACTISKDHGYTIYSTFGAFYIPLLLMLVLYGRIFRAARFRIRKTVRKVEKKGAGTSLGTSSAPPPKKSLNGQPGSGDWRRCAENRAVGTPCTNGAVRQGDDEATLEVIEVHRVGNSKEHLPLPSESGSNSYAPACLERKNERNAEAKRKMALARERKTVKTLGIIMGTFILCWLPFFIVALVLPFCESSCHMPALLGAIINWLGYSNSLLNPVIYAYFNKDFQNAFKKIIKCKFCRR
Description: The affinity of the compounds for serotonergic 5-HT1A receptors is determined by measuring the inhibition of [3H]8-hydroxy-2-(di-n-propylaminotetralin ([3H]8-OH-DPAT) bound to the cerebral cortex of the rat, according to the method of Peroutka and his coworkers [(J. Neurochem., 47, 529 (1986)].
Cerebral cortices of male Sprague Dawley rats are homogenised in Tris-HCl 50 mM, pH=7.4 and centrifuged at 40,000 g for 10 min at 4° C. Pellets are resuspended in the same buffer and incubated for 10 min at 37° C., and the homogenised products are centrifuged again at 40,000 g for 10 min at 4° C.
Competitive inhibition tests of [3H]8-OH-DPAT binding are carried out three times with unlabelled competitors, with concentrations between 100 pM and 100 μM. Cerebral cortex membranes of rats (10 mg wet weight/ml) are incubated with [3H]8-OH-DPAT (1 nM) for 30 min at 25° C. in Tris-HCl 50 mM, pH=7.4 containing 4 mM of CaCl2, […] of paragyline and 0.1% of ascorbic acid.
The bound [3H]8-OH-DPAT is separated from free [3H]8-OH-DPAT by immediate filtration by means of Whatman GF/B glass fibre filters using a Brandel cell recovery device. The filters are washed three times with the same buffer at 0-4° C. and their radioactivity is studied by means of a liquid scintillation spectrometer.
The specific binding is obtained by subtracting the binding determined in the presence of […] of 8-OH-DPAT from the total binding. The characteristics of the binding are analysed by iterative analysis of the non-linear regression by computer, using the Ligand program [Munson and Rodbard, Anal. Biochem., 107, 220 (1980)].

SMILES | Ki
COc1ccccc1OCCNCCCCC(=O)NC(C)(C)C [Compound 1, N-tert-butyl-5-[{2-(2-methoxyphenoxy)ethyl}amino]pentanamide] | 0.54 nM
COc1ccccc1OCCNCCCCC(=O)NC1CCCCC1 [Compound 2, N-cyclohexyl-5-[{2-(2-methoxyphenoxy)ethyl}amino]pentanamide] | 0.19 nM
COc1ccccc1OCCNCCCCC(=O)NC1CCCC1 [Compound 4, N-cyclopentyl-5-[{2-(2-methoxyphenoxy)ethyl}amino]pentanamide] | 0.29 nM
COc1ccccc1OCCNCCCCC(=O)NCC(C)(C)C [Compound 3, N-neopentyl-5-[{2-(2-methoxyphenoxyl)ethyl}amino]pentanamide] | 0.32 nM
CC(C)(C)CNC(=O)CCCCNCCOc1cccc(NC(N)=O)c1 [Compound 9, N-neopentyl-5-[{2-(3-(aminocarbonylamino)phenoxy)ethyl}-amino]pentanamide] | 0.41 nM
COC(=O)Nc1cccc(OCCNCCCCC(=O)NCC(C)(C)C)c1 [Compound 13, N-neopentyl-5-[{2-(3-(methoxycarbonylamino)phenoxy)ethyl}amino]pentanamide] | 0.84 nM
NC(=O)Nc1cccc(OCCNCCCCC(=O)NC2CCCCCC2)c1 [Compound 10, N-cyclcoheptyl-5-[{2-(3-(aminocarbonylamino)phenoxy)ethyl}amino]pentanamide] | 0.13 nM
CC(=O)Nc1cccc(OCCNCCCCC(=O)NC2CCCCC2)c1 [Compound 11, N-cyclohexyl-5-[{2-(3-(methylcarbonylamino)phenoxy)ethyl}amino]pentanamide] | 0.37 nM
CC(=O)Nc1cccc(OCCNCCCCC(=O)NCC(C)(C)C)c1 [Compound 12, N-neopentyl-5-[{2-(3-(methylcarbonylamino)phenoxy)ethyl}-amino]pentanamide] | 0.88 nM
COc1ccccc1OCCNCCCCC(=O)NC1CCCCCC1 [Compound 5, N-cycloheptyl-5-[{2-(2-methoxyphenoxy)ethyl}amino]pentanamide] | 0.098 nM
